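All cell lines were grown in 96-well plates and treated with compound for 48 hours. GI50: concentration for 50% inhibition of growth. TGI marks complete inhibition of growth.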
Assays:
Test in all cases: inhibition of tumour cell growth, NCI panel, 48 h
[1] = system: OVCAR-3 ovarian
[2] = system: HCT-116 colon
[3] = system: OVCAR-4 ovarian
[4] = system: KM12 colon
[5] = system: SNB-75 CNS
[6] = system: SK-MEL-28 melanoma
[7] = system: 786-0 renal
[8] = system: A549 NSCLC
[9] = system: OVCAR-5 ovarian
[10] = system: SNB-19 CNS
[11] = system: PC-3 prostate
[12] = system: SN12C renal
[13] = system: LOX IMVI melanoma
[14] = system: NCI-H522 lung
[15] = system: HOP-92 NSCLC
[16] = system: T-47D breast
[17] = system: NCI-H226 lung
[18] = system: ACHN renal
[19] = system: HCC-2998 colon
[20] = system: SF-539 CNS
[21] = system: UO-31 renal
[22] = system: OVCAR-8 ovarian
[23] = system: HL-60(TB) leukemia
[24] = system: MALME-3M melanoma
[25] = system: HOP-62 NSCLC
[26] = system: A498 renal
[27] = system: NCI-H460 lung
[28] = system: U251 CNS
[29] = system: SF-268 CNS
[30] = system: COLO 205 colon
[31] = system: HT29 colon
[32] = system: SK-MEL-5 melanoma
[33] = system: SK-MEL-2 melanoma
[34] = system: CCRF-CEM leukemia
[35] = system: NCI-H23 lung
[36] = system: CAKI-1 renal
[37] = system: MCF7 breast
[38] = system: UACC-257 melanoma
[39] = system: RXF 393 renal
[40] = system: MDA-MB-435
[41] = system: BT-549 breast
[42] = system: NCI/ADR-RES ovarian
[43] = system: M14 melanoma
[44] = system: DU-145 prostate
[45] = system: UACC-62 melanoma
[46] = system: SK-OV-3 ovarian
[47] = system: TK-10 renal
[48] = system: SW-620 colon
[49] = system: MDA-MB-231 breast
[50] = system: EKVX NSCLC
[51] = system: HS 578T breast
[52] = system: SF-295 CNS
[53] = system: SR leukemia
[54] = system: HCT-15 colon
[55] = system: K-562 leukemia
[56] = system: IGROV1 ovarian
[57] = system: MOLT-4 leukemia
[58] = system: RPMI-8226 leukemia

## O=C(Nc1ccc(-n2ccc3c(NC(=O)c4ccccc4)nccc32)cc1)c1cccc(C(F)(F)F)c1
[1]
  GI50: 1 µM
  TGI: 7.89 µM
[2]
  GI50: 0.177 µM
  TGI: 6.92 µM
[3]
  GI50: 2.7 µM
  TGI: 22.6 µM
[4]
  GI50: 0.4 µM
  TGI: 7.64 µM
[5]
  GI50: 0.707 µM
  TGI: 6.59 µM
[6]
  GI50: 2.4 µM
  TGI: 11 µM
[7]
  GI50: 0.728 µM
  TGI: 9.14 µM
[8]
  GI50: 0.418 µM
  TGI: 9.4 µM
[9]
  GI50: 3.07 µM
  TGI: > 50 µM
[10]
  GI50: 0.729 µM
  TGI: 20.1 µM
[11]
  GI50: 1.29 µM
  TGI: 27.3 µM
[12]
  GI50: 1.67 µM
  TGI: > 35.6 µM
[13]
  GI50: 0.182 µM
  TGI: 5.4 µM
[14]
  GI50: 1.07 µM
  TGI: > 13.5 µM
[15]
  GI50: 1.96 µM
  TGI: > 50 µM
[16]
  GI50: 4.66 µM
  TGI: 30.9 µM
[17]
  GI50: 2.56 µM
  TGI: > 50 µM
[18]
  GI50: 0.624 µM
  TGI: 14.7 µM
[19]
  GI50: 1.71 µM
  TGI: 11.6 µM
[20]
  GI50: 0.47 µM
  TGI: 11.5 µM
[21]
  GI50: 1.83 µM
  TGI: 15.9 µM
[22]
  GI50: 0.393 µM
  TGI: 10.3 µM
[23]
  GI50: 0.685 µM
  TGI: 15.3 µM
[24]
  GI50: 2.04 µM
  TGI: 12.2 µM
[25]
  GI50: 2.02 µM
  TGI: 14.5 µM
[26]
  GI50: 0.905 µM
  TGI: 15.6 µM
[27]
  GI50: 0.119 µM
  TGI: 5.38 µM
[28]
  GI50: 0.158 µM
  TGI: 7.09 µM
[29]
  GI50: 0.473 µM
  TGI: 25.6 µM
[30]
  GI50: 1.42 µM
  TGI: 10.3 µM
[31]
  GI50: 0.243 µM
  TGI: 4.02 µM
[32]
  GI50: 0.194 µM
  TGI: 6.65 µM
[33]
  GI50: 1.29 µM
  TGI: 7.27 µM
[34]
  GI50: 0.313 µM
  TGI: 13.2 µM
[35]
  GI50: 3.88 µM
  TGI: > 36.1 µM
[36]
  GI50: 0.326 µM
  TGI: 7.92 µM
[37]
  GI50: 0.413 µM
  TGI: 7.94 µM
[38]
  GI50: 2.09 µM
  TGI: > 21.6 µM
[39]
  GI50: 1.02 µM
  TGI: 5.97 µM
[40]
  GI50: 0.657 µM
  TGI: 4.98 µM
[41]
  GI50: 2.03 µM
  TGI: 22.3 µM
[42]
  GI50: 0.724 µM
  TGI: 11.9 µM
[43]
  GI50: 1.38 µM
  TGI: 9.06 µM
[44]
  GI50: 1.64 µM
  TGI: 9.71 µM
[45]
  GI50: 0.714 µM
  TGI: 8.48 µM
[46]
  GI50: 0.879 µM
  TGI: 15.4 µM
[47]
  GI50: 1.53 µM
  TGI: 12.6 µM
[48]
  GI50: 0.381 µM
  TGI: 7.32 µM
[49]
  GI50: 2.88 µM
  TGI: 14.7 µM
[50]
  GI50: 4.33 µM
  TGI: > 50 µM
[51]
  GI50: 1.42 µM
  TGI: 13.1 µM
[52]
  GI50: 0.392 µM
  TGI: 7.99 µM
[53]
  GI50: 0.0753 µM
  TGI: > 18 µM
[54]
  GI50: 0.0428 µM
  TGI: 6.99 µM
[55]
  GI50: 0.231 µM
  TGI: > 23.1 µM
[56]
  GI50: 1.4 µM
  TGI: > 50 µM
[57]
  GI50: 0.29 µM
  TGI: > 25.9 µM
[58]
  GI50: 0.614 µM
  TGI: 14.2 µM
